From patent US5214046A, “Substituted aminoalkoxybenzene anti-fungicidal compositions and use” (Hoffmann-La Roche Inc., priority 1989, dated 1993) come the findings set out here.

In data set [1] the target is 2,3-epoxysqualene-lanosterol cyclase (Candida albicans, UniProt Q04782). The data set is described as follows: Inhibition of 2,3-epoxysqualene-lanosterol cyclase from Candida albicans (cell-free extract, 14C-squalene epoxide). In kind it is biochemical.
A short description of data set [2]: Acute toxicity in the case of subcutaneous administration to mice. The settings on record: mouse, in vivo, sc. Here is the method: The IC50 values are determined graphically and are given in μg of test substance per ml. Table I contains IC50 values determined in the above test for representative members of the class of compound defined by formula I as well as data concerning the acute toxicity in the case of subcutaneous administration to mice (LD50 in mg/kg).

Some results are limits rather than exact numbers.

2,3-epoxysqualene-lanosterol cyclase, sequence (Q04782 whole entry): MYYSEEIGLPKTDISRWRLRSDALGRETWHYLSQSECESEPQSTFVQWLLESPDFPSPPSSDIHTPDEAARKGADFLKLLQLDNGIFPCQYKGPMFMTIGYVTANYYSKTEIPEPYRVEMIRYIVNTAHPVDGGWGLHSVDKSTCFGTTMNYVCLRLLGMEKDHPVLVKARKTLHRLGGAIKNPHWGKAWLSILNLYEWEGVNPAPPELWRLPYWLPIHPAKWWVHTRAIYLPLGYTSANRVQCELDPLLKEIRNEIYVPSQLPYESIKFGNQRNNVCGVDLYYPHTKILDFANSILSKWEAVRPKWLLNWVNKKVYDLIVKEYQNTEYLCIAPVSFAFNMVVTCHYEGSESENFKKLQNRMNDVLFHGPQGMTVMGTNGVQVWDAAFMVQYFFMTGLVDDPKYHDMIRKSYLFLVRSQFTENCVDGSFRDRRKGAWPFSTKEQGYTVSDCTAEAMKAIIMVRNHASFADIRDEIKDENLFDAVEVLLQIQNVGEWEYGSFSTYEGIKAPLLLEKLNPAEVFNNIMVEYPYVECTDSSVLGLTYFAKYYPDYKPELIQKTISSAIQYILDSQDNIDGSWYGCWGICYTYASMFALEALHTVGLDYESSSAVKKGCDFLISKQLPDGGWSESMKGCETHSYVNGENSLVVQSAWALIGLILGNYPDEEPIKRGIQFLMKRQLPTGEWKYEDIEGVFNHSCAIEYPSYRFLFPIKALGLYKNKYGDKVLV

Turning to `CN(C)CCCCOc1ccc(C(=O)c2ccccc2)cc1` [Compound 1, 4-[[4-(dimethylamino)butyl]oxy]benzophenone], the IC50 (in general, the concentration that inhibits the measured activity by half) in data set [1] was 2.86 µM. In addition, the LD50 (usually the dose at which mortality reaches 50%) in data set [2] is greater than 4000 mg/kg.

As to `C=CCN(C)CCCCCCOc1ccc(C(=O)c2ccccc2)cc1` [Compound 31, 4-[[6-(allylmethylamino)hexyl]oxy]benzophenone], in data set [1], inhibition was half-maximal at 0.125 µM (IC50). Further, in data set [2], the LD50 is 1000 to 2000 mg/kg.
